The values below come from ChEMBL document CHEMBL5523675, “Novel mitochondrial and DNA damaging fluorescent Calix[4]arenes bearing isatin groups as aromatase inhibitors: Design, synthesis and anticancer activity” (Bioorg Med Chem, 2024).

The structures appear in SMILES notation.

The test system of data set [1] is MDA-MB-231. The experiment in a line: Induction of apoptosis in human MDA-MB-231 cells assessed as early apoptotic cells incubated for 48 hrs by annexin V and 7-AAD staining based flow cytometry analysis (reference value: 0.18%). The data set is classed as functional. For orientation: In flow cytometry, cells or beads pass a laser one at a time.
Data set [2] can be described thus: Genotoxicity in human MCF7 cells assessed as abnormal tail nuclei measured after 48 hrs by ethidium bromide staining based fluorescent microscopic analysis. Type of data set: toxicity, cell-based. The conditions noted are these: mcf7, 48 h.
Data set [3] in a line: Genotoxicity in human MDA-MB-231 cells assessed as appearance of damaged DNA structures measured after 48 hrs by ethidium bromide staining based fluorescent microscopic analysis. The data set is classed as toxicity, cell-based. The note with it: mda-mb-231, 48 h.
Data set [4] in a line: Genotoxicity in human MCF7 cells assessed as appearance of damaged DNA structures measured after 48 hrs by ethidium bromide staining based fluorescent microscopic analysis. The data set is classed as toxicity, cell-based. The note with it: mcf7, 48 h.
For data set [5], the system named is MCF7. The experiment in a line: Induction of apoptosis in human MCF7 cells assessed as live cells incubated for 48 hrs by annexin V and 7-AAD staining based flow cytometry analysis (reference value: 99.14%). The data set is classed as functional.
Data set [6] relates to PNT1A. The experiment in a line: Induction of apoptosis in human PNT1A cells assessed as necrosis incubated for 48 hrs by annexin V and 7-AAD staining based flow cytometry analysis (reference value: 0.22%). Type of data set: functional.
Data set [7] relates to MDA-MB-231. The experiment in a line: Antiproliferative activity against human MDA-MB-231 cells assessed as inhibition of cell growth measured after 48 hrs by Alamar blue dye based assay. Type of data set: functional. The conditions noted are these: MDA-MB-231, 48 h.
The test system of data set [8] is PNT1A. The experiment in a line: Induction of apoptosis in human PNT1A cells assessed as early apoptotic cells incubated for 48 hrs by annexin V and 7-AAD staining based flow cytometry analysis (reference value: 0.04%). The data set is classed as functional.
Data set [9] relates to PNT1A. The experiment in a line: Induction of apoptosis in human PNT1A cells assessed as late apoptotic cells incubated for 48 hrs by annexin V and 7-AAD staining based flow cytometry analysis (reference value: 0.04%). Type of data set: functional.
The subject of data set [10] is MCF7. The experiment in a line: Induction of apoptosis in human MCF7 cells assessed as late apoptotic cells incubated for 48 hrs by annexin V and 7-AAD staining based flow cytometry analysis (reference value: 0.68%). The data set is classed as functional.
For a further data set, the target named is T1, Aromatase (Homo sapiens, UniProt P11511).
T1 sequence (P11511 whole entry): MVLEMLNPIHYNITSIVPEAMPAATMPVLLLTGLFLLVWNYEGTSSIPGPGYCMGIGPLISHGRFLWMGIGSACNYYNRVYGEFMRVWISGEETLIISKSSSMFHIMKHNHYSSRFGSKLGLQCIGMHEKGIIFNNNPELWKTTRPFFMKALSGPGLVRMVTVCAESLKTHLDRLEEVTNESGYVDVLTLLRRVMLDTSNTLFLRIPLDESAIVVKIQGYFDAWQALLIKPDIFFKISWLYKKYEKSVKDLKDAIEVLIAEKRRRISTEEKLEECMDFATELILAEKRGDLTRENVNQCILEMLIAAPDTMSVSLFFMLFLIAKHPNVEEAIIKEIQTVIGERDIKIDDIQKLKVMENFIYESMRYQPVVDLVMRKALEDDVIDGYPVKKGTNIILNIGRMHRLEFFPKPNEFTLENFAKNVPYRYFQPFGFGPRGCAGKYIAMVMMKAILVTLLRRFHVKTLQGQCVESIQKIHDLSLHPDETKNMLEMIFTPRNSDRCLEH
The experiment in a line: Inhibition of human Aromatase by fluorimetric assay.

Data set [11] has as its system MCF7. The experiment in a line: Induction of apoptosis in human MCF7 cells assessed as necrosis incubated for 48 hrs by annexin V and 7-AAD staining based flow cytometry analysis (reference value: 0.03%). Type of data set: functional.
For data set [12], the system named is MDA-MB-231. The experiment in a line: Induction of apoptosis in human MDA-MB-231 cells assessed as late apoptotic cells incubated for 48 hrs by annexin V and 7-AAD staining based flow cytometry analysis (reference value: 0.12%). The data set is classed as functional.
Data set [13] is described as follows: Drug localization in mitochondria of human MDA-MB-231 cells at 2 uM incubated for 45 mins by MitoTracker dye based confocal laser scanning microscopic analysis. The data set is classed as ADME. The note with it: mda-mb-231, 0.75 h.
Data set [14] in a line: Genotoxicity in human MDA-MB-231 cells assessed as abnormal tail nuclei measured after 48 hrs by ethidium bromide staining based fluorescent microscopic analysis. Type of data set: toxicity, cell-based. The note with it: mda-mb-231, 48 h.
Data set [15] deals with PNT1A. The experiment in a line: Induction of apoptosis in human PNT1A cells assessed as live cells incubated for 48 hrs by annexin V and 7-AAD staining based flow cytometry analysis (reference value: 99.69%). Type of data set: functional.
Data set [16] in a line: Antiproliferative activity against human PNT1A cells assessed as inhibition of cell growth measured after 48 hrs by Alamar blue dye based assay. The data set is classed as toxicity. (The colour change of resazurin is a common sign of viable cells or microbes.)
The subject of data set [17] is MCF7. The experiment in a line: Antiproliferative activity against human MCF7 cells assessed as inhibition of cell growth measured after 48 hrs by Alamar blue dye based assay. Type of data set: functional. The conditions noted are these: MCF7, 48 h.
Data set [18] has as its system MDA-MB-231. The experiment in a line: Induction of apoptosis in human MDA-MB-231 cells assessed as necrosis incubated for 48 hrs by annexin V and 7-AAD staining based flow cytometry analysis (reference value: 0.09%). Type of data set: functional.
Data set [19] relates to MDA-MB-231. The experiment in a line: Induction of apoptosis in human MDA-MB-231 cells assessed as live cells incubated for 48 hrs by annexin V and 7-AAD staining based flow cytometry analysis (reference value: 99.61%). Type of data set: functional.
Data set [20] relates to MCF7. The experiment in a line: Induction of apoptosis in human MCF7 cells assessed as early apoptotic cells incubated for 48 hrs by annexin V and 7-AAD staining based flow cytometry analysis (reference value: 0.14%). The data set is classed as functional.

The term IC50 denotes the point on the concentration scale where inhibition reaches its midpoint.

Regarding `C[n+]1ccc(/C=C/c2cc3c(O)c(c2)Cc2cc(C(C)(C)C)cc(c2OCCCn2cc(CN4C(=O)C(=O)c5cc(Cl)ccc54)nn2)Cc2cc(/C=C/c4cc[n+](C)cc4)cc(c2O)Cc2cc(C(C)(C)C)cc(c2OCCCn2cc(CN4C(=O)C(=O)c5cc(Cl)ccc54)nn2)C3)cc1.[I-].[I-]`, the Activity in the data set on MDA-MB-231 [1] is on record as 0.23%; in data set [2], “Toxic”; in [3], “Toxic”; in [4] it was “Toxic”; with MCF7 [5], 53.45%; in the data set on PNT1A [6], 0.11%. Moreover, the Activity with PNT1A [8] was 1.74%; in the data set on PNT1A [9], 0.25%; in the data set with MCF7 [10] it was 36.24%; in the data set with MCF7 [11] it was 5.75%; in the data set with MDA-MB-231 [12], 2.74%; in data set [14], “Toxic”. The figures for the Activity with MDA-MB-231 [18], with MDA-MB-231 [19] and in the data set with MCF7 [20] were 13.63%, 83.4% and 4.56%, respectively. In addition, the IC50 is 3.32 µM with MDA-MB-231 [7], 0.104 µM against Aromatase and 8.83 µM in the data set with MCF7 [17]. In addition, the Drug uptake entry in data set [13] was “Active”. In the data set on PNT1A [15], the Live cells was 97.91%. Besides, the IC50 at 48 h in [16] is 32.9 µM.
